Experimental data reported in US20130108713A1 (RYAOMA, INC., priority 2008, published 2013).

Assays:
[1] = test system: metastatic melanoma-affected patients
Protocol: The melanoma-affected patients are treated as follows. […] The treatment course spans 15 to 20 intravenous infusions. When a positive dynamic is achieved, the treatment course is followed until the pronounced effect is produced.
Along with an estimated rate of objected responses of therapeutical measures, a comparison was made between such indexes as the quality of life, endurability of therapeutic treatment, and total survivability. The study included the patients of the age period between 18-75 with histologically confirmed diagnoses of skin related melanomas. None of the patients had yet gone through chemotherapy. […] The treatment process continued to the point where the disease started progressing or side-effects developed that required the therapeutic measures to be terminated.
Dacarbazine in a dose of 2500 mg/mL was prescribed in a form of infusion that lasted sixty minutes (60 min.), once a day during successive five days, every four weeks on the 1-5 and 29-33rd days respectively. Repeated courses were carried out only in the patients whose progressing disease was not recorded.

albumin = test: Albumin coagulation, optic density on photoelectric calorimeter; format: biochemical; details: for coagulation of the protein (in words): albumin solution
Protocol: In the coagulation studies, albumin was used for the protein.
In the table, the calculated concentrations of the substances being investigated are listed.
One (1) ml of the tannin solution was put into the test-tube. One (1) ml of the albumin solution was added. 5 ml of water were added. The mixture was shaken. An optic density of the solution was determined on KΦK-2(photoelectric calorimeter) when Δ=260 nm, in cuvette=1 cm in 5, 10, 15, 20, 25 min.
Each weight was repeated three times and the optical density measured.
In addition, the control experiment was conducted with 1 ml of the albumin solution, 0.001 g of potassium iodide, 5 ml of water.

[2] = reaction with PSA; cited from earlier work
[3] = treated patients, hematological side-effect

SMILES | frequency of objective responses ([1]; melanoma patients, responses recorded in skin-based metastatic melanomas) [%] | neuropenia recorded [1, 3] | trombocytopenia recorded [1, 3] | optic density (albumin; 0.001 g of potassium iodide added to the tannin/albumin solution) | coagulation of the protein (in words) (albumin) | optic density (albumin; another 0.001 g of potassium iodide added to the tannin/albumin solution) | turbidity in the solution (albumin; control: 1 ml albumin solution, 0.001 g potassium iodide, 5 ml water, one hour later) | optic density d5 (albumin; 1 ml tannin solution + 1 ml albumin solution + 5 ml water, 260 nm, 1 cm cuvette, 5 min) | optic density d10 (albumin; same mixture, 10 min) | optic density d20 (albumin; same mixture, 20 min) | optic density d25 (albumin; same mixture, 25 min) | period of precipitation for the reaction (albumin; tannin + albumin) [min] | moles of N-acetylneuraminic acid sedimented by each mole of tannic acid [2]
CN(C)/N=N/c1[nH]cnc1C(N)=O [dacarbazine] | 23 | 14 % of observations | 57 % of the patients |  |  |  |  |  |  |  |  |  | 
[I-].[K+] [potassium iodide] |  |  |  | 0.87 | did not possess coagulating capacity | 0.92 | no turbidity |  |  |  |  |  | 
O=C(OC[C@H]1O[C@@H](OC(=O)c2cc(O)c(O)c(OC(=O)c3cc(O)c(O)c(O)c3)c2)[C@H](OC(=O)c2cc(O)c(O)c(OC(=O)c3cc(O)c(O)c(O)c3)c2)[C@@H](OC(=O)c2cc(O)c(O)c(OC(=O)c3cc(O)c(O)c(O)c3)c2)[C@@H]1OC(=O)c1cc(O)c(O)c(OC(=O)c2cc(O)c(O)c(O)c2)c1)c1cc(O)c(O)c(OC(=O)c2cc(O)c(O)c(O)c2)c1 [tannin, tannic acid] |  |  |  |  | No coagulation |  |  | 0.11 | 0.16 | 0.19 | 0.19 | 20 | three
